From patent US10899759B2, “Positive allosteric modulators of the muscarinic acetylcholine receptor M1” (Vanderbilt University, priority 2016, dated 2021) come the findings set out here.

What is called Emax is the greatest response seen or fitted, relative to the assay's reference. Usually EC50 stands for the concentration that produces a half-maximal response.

Structures are written as SMILES.

The test addresses T1, human mAChR M1 (Homo sapiens, UniProt P11229).
T1 construct: host or cells: CHO-K1
T1 sequence (P11229 1-460): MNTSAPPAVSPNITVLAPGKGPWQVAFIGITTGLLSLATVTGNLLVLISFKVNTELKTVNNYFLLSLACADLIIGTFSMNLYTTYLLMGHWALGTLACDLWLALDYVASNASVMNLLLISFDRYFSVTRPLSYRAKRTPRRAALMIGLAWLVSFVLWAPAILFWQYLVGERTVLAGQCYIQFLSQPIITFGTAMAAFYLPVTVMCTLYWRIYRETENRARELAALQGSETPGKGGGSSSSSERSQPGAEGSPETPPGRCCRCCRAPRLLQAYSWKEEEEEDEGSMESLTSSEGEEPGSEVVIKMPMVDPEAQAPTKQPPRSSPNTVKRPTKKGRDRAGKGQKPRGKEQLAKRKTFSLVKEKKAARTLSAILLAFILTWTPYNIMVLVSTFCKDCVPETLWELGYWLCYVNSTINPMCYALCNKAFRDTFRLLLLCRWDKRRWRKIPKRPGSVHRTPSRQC
The test is described as follows: mAChR M1 cell-based functional assay (calcium mobilization, Fluo-4, FDSS). As to conditions: CHO-K1 cells stably expressing hM1; for Emax: EC20 acetylcholine response, read-out: Human M1 Emax; for EC50: positive allosteric modulator activity as increase in the EC20 acetylcholine response. Summed up: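 CHO-K1 cells stably expressing muscarinic receptor, loaded with Fluo-4; 11-point 1:3 compound series added and calcium flux read over 300 s at 1 Hz. Agonism from direct calcium rise, PAM activity as potentiation of EC20 acetylcholine, antagonism as decrease of EC80 acetylcholine; four-parameter logistic fits.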
In general terms: Calcium assays in cells follow changes in intracellular calcium, usually with a dye or a luminescent sensor.

For `O=C(NCC1CCOC1)c1cc(Cc2ccc(-n3cccn3)cc2)c2ccsc2n1` (stereo not drawn) [Compound 79, 4-[(4-pyrazol-1-ylphenyl)methyl]-N-(tetrahydrofuran-3-ylmethyl)thieno[2,3-b]pyridine-6-carboxamide], the Emax is 65.6% and the EC50 is 2080 nM.

As to `CCn1ccc2c(Cc3ccc(-n4cccn4)cc3)cc(C(=O)N[C@H]3CC[C@@H]3O)nc21` [Compound 13, 1-ethyl-N-[(1S,2S)-2-hydroxycyclobutyl]-4-[(4-pyrazol-1-ylphenyl)methyl]pyrrolo[2,3-b]pyridine-6-carboxamide], the maximal effect (Emax) came to 70.7% and the EC50 was 410 nM.

Consider `Cc1nc(-c2ccc(Cc3cc(C(=O)NCC4CCN4)nc4sccc34)cc2)co1` (stereo not drawn) [Compound 142, N-(azetidin-2-ylmethyl)-4-[[4-(2-methyloxazol-4-yl)phenyl]methyl]thieno[2,3-b]pyridine-6-carboxamide], for which the maximal response (Emax) amounted to 60.1% and the EC50 was found to be 2370 nM.

For the compound `Cn1ccc(-c2ccc(Cc3cc(C(=O)NC4CC(F)C4)nc4sccc34)cn2)n1` (stereo not drawn) [Compound 110, N-(3-fluorocyclobutyl)-4-[[6-(1-methylpyrazol-3-yl)-3-pyridyl]methyl]thieno[2,3-b]pyridine-6-carboxamide], the Emax stood at 58.4% and the EC50 is 60 nM.

As to `CC1COCCC1NC(=O)c1cc(Cc2ccc(-c3ccn(C)n3)nc2)c2ccsc2n1` (stereo not drawn) [Compound 106, 4-[[6-(1-methylpyrazol-3-yl)-3-pyridyl]methyl]-N-(3-methyltetrahydropyran-4-yl)thieno[2,3-b]pyridine-6-carboxamide], the maximal response (Emax) was determined as 58.4% and the EC50 stood at 110 nM.

In the case of `CC1CC(NC(=O)c2cc(Cc3ccc(-c4ccn(C)n4)nc3)c3ccsc3n2)CC(C)O1` (stereo not drawn) [Compound 104, N-(2,6-dimethyltetrahydropyran-4-yl)-4-[[6-(1-methylpyrazol-3-yl)-3-pyridyl]methyl]thieno[2,3-b]pyridine-6-carboxamide], the Emax stood at 59.7% and the 50% effective concentration (EC50) was found to be 90 nM.

`Cn1ccc2c(Cc3ccc(-n4cccn4)cc3)cc(C(=O)N[C@H]3CCCC[C@@H]3O)nc21` [Compound 17, N-[(1S,2S)-2-hydroxycyclohexyl]-1-methyl-4-[(4-pyrazol-1-ylphenyl)methyl]pyrrolo[2,3-b]pyridine-6-carboxamide]: the Emax was found to be 66.4% and the EC50 is 30 nM.

In the case of `Cc1nc(-c2ccc(Cc3cc(C(=O)N[C@H]4CC[C@@H]4O)nc4c3ccn4C)cc2)co1` [Compound 57, N-[(1S,2S)-2-hydroxycyclobutyl]-1-methy1-4-[[4-(2-methyloxazol-4-yl)phenyl]methyl]pyrrolo[2,3-b]pyridine-6-carboxamide], the maximal response (Emax) came to 83.6% and the EC50 came out at 840 nM.

Regarding `Cn1ncc2c(Cc3ccc(-n4cccn4)cc3)cc(C(=O)NC3CC4(COC4)C3)nc21` [Compound 6, 1-methyl-N-(2-oxaspiro[3.3]heptan-6-yl)-4-[(4-pyrazol-1-ylphenyl)methyl]pyrazolo[3,4-b]pyridine-6-carboxamide], the Emax was found to be 69.9% and the EC50 was 1730 nM.

With `O=C(NC1COC1)c1cc(Cc2ccc(-n3cccn3)cc2)c2ccsc2n1` [Compound 81, N-(oxetan-3-yl)-4-[(4-pyrazol-1-ylphenyl)methyl]thieno[2,3-b]pyridine-6-carboxamide], the Emax was determined as 69.4% and the EC50 stood at 190 nM.

With `Cn1cc(-c2ccc(Cc3cc(C(=O)NC4CCOCC4(C)C)nc4sccc34)cn2)cn1` (stereo not drawn) [Compound 117, N-(3,3-dimethyltetrahydropyran-4-yl)-4-[[6-(1-methylpyrazol-4-yl)-3-pyridyl]methyl]thieno[2,3-b]pyridine-6-carboxamide], the Emax came out at 55.7% and the EC50 was 150 nM.

In the case of `Cc1nc(-c2ccc(Cc3cc(C(=O)NCC4CCOCC4)nc4sccc34)cc2)co1` [Compound 135], the Emax stood at 57.7% and the EC50 turned out to be 540 nM.
